Reference: article PMC11129975, “A first-in-human phase I study of TAS-117, an allosteric AKT inhibitor, in patients with advanced solid tumors” (Cancer Chemotherapy and Pharmacology, 2024)

Assay: Phase I safety: adverse events, adverse drug reactions, DLTs in patients with advanced solid tumors
Format: in vivo, human
Description: This was a phase I, open-label, non-randomized, dose-escalating first-in-human study to evaluate the safety, pharmacokinetics, antitumor activity, pharmacodynamics, and pharmacogenomics of TAS-117 in patients with advanced solid tumors. The study had three phases: a dose escalation phase (DEP), a regimen modification phase (RMP), and a safety assessment phase (SAP). The treatment cycle on each regimen lasted 21 days. The DEP used an accelerated titration and 3 + 3 design. TAS-117 was administered orally once daily (QD) on an empty stomach (1 h before or 2 h after a meal). Dosing was determined based on a 4-week repeated oral-dose toxicology study in monkeys (data on file, Taiho Pharmaceutical Co., Ltd.); the highest non-severely toxic dose was 1.2 mg/kg/day, which was converted to 3.84 mg/body/day, or 2.4 mg/m^2. Therefore, the starting dose was determined to be ≤ 2.4 mg/m^2. At dose level 1, TAS-117 was administered at 2 mg QD (Day − 2), and the dose was increased to 4 mg QD after 2 days (Day 1). The RMP was conducted according to a 3 + 3 design. During this phase, the dose regimen was changed from QD administration to intermittent dosing of daily TAS-117 with 4 days on/3 days off. TAS-117 was administered on an empty stomach. Dose-limiting toxicities (DLTs) were evaluated in Cycle 1 of the DEP and RMP. […] The RD and regimen for the SAP were determined based on the safety, pharmacokinetics, pharmacodynamics, and antitumor activity profile determined in the DEP and RMP. During the SAP, the safety and preliminary efficacy profiles of TAS-117 were assessed at the RD and recommended regimen. Three cohorts were included in this assessment. Cohort 1 included patients with endometrial cancer with a PIK3CA mutation; cohort 2 included patients with endometrial cancer with an AKT1 mutation, AKT1 amplification, or AKT2 amplification; and cohort 3 included patients with ovarian clear cell carcinoma.
The primary endpoints were the proportion of patients who experienced DLTs in Cycle 1 of the DEP and RMP and the incidence of adverse events (AEs) and adverse drug reactions (ADRs) in the SAP. AEs and ADRs were coded using the Medical Dictionary for Regulatory Activities (MedDRA; version 24.1) and graded according to the National Cancer Institute Common Terminology Criteria for Adverse Events (CTCAE; version 4.03). Secondary endpoints were pharmacokinetic findings, changes in the ratio of phosphorylated PRAS40 (pPRAS40)/total PRAS40 from baseline, efficacy, and pharmacogenomics findings.

SMILES: C[C@]1(O)C[C@@](N)(c2ccc(-c3nc4n(c3-c3ccccc3)COc3ccncc3-4)cc2)C1 [TAS-117]
- Adverse drug reactions: AST increased (SAP n = 43, All grade): 6 (14.0) n (%)
- Adverse drug reactions: Any events (SAP n = 43, All grade): 43 (100.0) n (%)
- Adverse drug reactions: Blood AP increased (SAP n = 43, All grade): 5 (11.6) n (%)
- Adverse drug reactions: Decreased appetite (SAP n = 43, All grade): 3 (7.0) n (%)
- Adverse drug reactions: Diarrhea (SAP n = 43, All grade): 5 (11.6) n (%)
- Adverse drug reactions: Dry skin (SAP n = 43, All grade): 7 (16.3) n (%)
- Adverse drug reactions: GGT increased (SAP n = 43, All grade): 5 (11.6) n (%)
- Adverse drug reactions: GI disorders (SAP n = 43, All grade): 29 (67.4) n (%)
- Adverse drug reactions: General disorders and administration site conditions (SAP n = 43, All grade): 20 (46.5) n (%)
- Adverse drug reactions: Hyperglycemia (SAP n = 43, All grade): 23 (53.5) n (%)
- Adverse drug reactions: Investigations (SAP n = 43, All grade): 28 (65.1) n (%)
- Adverse drug reactions: Metabolism and nutrition disorders (SAP n = 43, All grade): 26 (60.5) n (%)
- Adverse drug reactions: Nausea (SAP n = 43, All grade): 12 (27.9) n (%)
- Adverse drug reactions: Neutrophil count decreased (SAP n = 43, All grade): 15 (34.9) n (%)
- Adverse drug reactions: Pruritus (SAP n = 43, All grade): 8 (18.6) n (%)
- Adverse drug reactions: Pyrexia (SAP n = 43, All grade): 12 (27.9) n (%)
- Adverse drug reactions: Rash maculo-papular (SAP n = 43, All grade): 40 (93.0) n (%)
- Adverse drug reactions: Skin and SC tissue disorders (SAP n = 43, All grade): 41 (95.3) n (%)
- Adverse drug reactions: Stomatitis (SAP n = 43, All grade): 26 (60.5) n (%)
- Adverse drug reactions: Vomiting (SAP n = 43, All grade): 4 (9.3) n (%)
- Adverse drug reactions: WBC count decreased (SAP n = 43, All grade): 19 (44.2) n (%)
- Adverse events: ALT increased (SAP n = 43, All grade): 8 (18.6) n (%)
- Adverse events: AST increased (SAP n = 43, All grade): 8 (18.6) n (%)
- Adverse events: Any events (SAP n = 43, All grade): 43 (100.0) n (%)
- Adverse events: Blood AP increased (SAP n = 43, All grade): 5 (11.6) n (%)
- Adverse events: Decreased appetite (SAP n = 43, All grade): 7 (16.3) n (%)
- Adverse events: Diarrhea (SAP n = 43, All grade): 9 (20.9) n (%)
- Adverse events: Dry skin (SAP n = 43, All grade): 10 (23.3) n (%)
- Adverse events: GGT increased (SAP n = 43, All grade): 7 (16.3) n (%)
- Adverse events: GI disorders (SAP n = 43, All grade): 35 (81.4) n (%)
- Adverse events: General disorders and administration site conditions (SAP n = 43, All grade): 25 (58.1) n (%)
- Adverse events: Hyperglycemia (SAP n = 43, All grade): 23 (53.5) n (%)
- Adverse events: Investigations (SAP n = 43, All grade): 29 (67.4) n (%)
- Adverse events: Metabolism and nutrition disorders (SAP n = 43, All grade): 28 (65.1) n (%)
- Adverse events: Nausea (SAP n = 43, All grade): 15 (34.9) n (%)
- Adverse events: Neutrophil count decreased (SAP n = 43, All grade): 15 (34.9) n (%)
- Adverse events: Pruritus (SAP n = 43, All grade): 8 (18.6) n (%)
- Adverse events: Pyrexia (SAP n = 43, All grade): 17 (39.5) n (%)
- Adverse events: Rash maculo-papular (SAP n = 43, All grade): 40 (93.0) n (%)
- Adverse events: Skin and SC tissue disorders (SAP n = 43, All grade): 41 (95.3) n (%)
- Adverse events: Stomatitis (SAP n = 43, All grade): 27 (62.8) n (%)
- Adverse events: Vomiting (SAP n = 43, All grade): 8 (18.6) n (%)
- Adverse events: WBC count decreased (SAP n = 43, All grade): 19 (44.2) n (%)
- Adverse drug reactions: ALT increased (SAP n = 43, ≥ Grade 3): 2 (4.7) n (%)
- Adverse drug reactions: AST increased (SAP n = 43, ≥ Grade 3): 0 (0.0) n (%)
- Adverse drug reactions: Any events (SAP n = 43, ≥ Grade 3): 30 (69.8) n (%)
- Adverse drug reactions: Blood AP increased (SAP n = 43, ≥ Grade 3): 0 (0.0) n (%)
- Adverse drug reactions: Decreased appetite (SAP n = 43, ≥ Grade 3): 0 (0.0) n (%)
- Adverse drug reactions: Diarrhea (SAP n = 43, ≥ Grade 3): 0 (0.0) n (%)
- Adverse drug reactions: Dry skin (SAP n = 43, ≥ Grade 3): 0 (0.0) n (%)
- Adverse drug reactions: GGT increased (SAP n = 43, ≥ Grade 3): 4 (9.3) n (%)
- Adverse drug reactions: GI disorders (SAP n = 43, ≥ Grade 3): 1 (2.3) n (%)
- Adverse drug reactions: General disorders and administration site conditions (SAP n = 43, ≥ Grade 3): 0 (0.0) n (%)
- Adverse drug reactions: Hyperglycemia (SAP n = 43, ≥ Grade 3): 7 (16.3) n (%)
- Adverse drug reactions: Investigations (SAP n = 43, ≥ Grade 3): 16 (37.2) n (%)
- Adverse drug reactions: Metabolism and nutrition disorders (SAP n = 43, ≥ Grade 3): 7 (16.3) n (%)
- Adverse drug reactions: Nausea (SAP n = 43, ≥ Grade 3): 0 (0.0) n (%)
- Adverse drug reactions: Neutrophil count decreased (SAP n = 43, ≥ Grade 3): 9 (20.9) n (%)
- Adverse drug reactions: Pruritus (SAP n = 43, ≥ Grade 3): 0 (0.0) n (%)
- Adverse drug reactions: Pyrexia (SAP n = 43, ≥ Grade 3): 0 (0.0) n (%)
- Adverse drug reactions: Rash maculo-papular (SAP n = 43, ≥ Grade 3): 20 (46.5) n (%)
- Adverse drug reactions: Skin and SC tissue disorders (SAP n = 43, ≥ Grade 3): 21 (48.8) n (%)
- Adverse drug reactions: Stomatitis (SAP n = 43, ≥ Grade 3): 1 (2.3) n (%)
- Adverse drug reactions: Vomiting (SAP n = 43, ≥ Grade 3): 0 (0.0) n (%)
- Adverse drug reactions: WBC count decreased (SAP n = 43, ≥ Grade 3): 5 (11.6) n (%)
- Adverse events: ALT increased (SAP n = 43, ≥ Grade 3): 2 (4.7) n (%)
- Adverse events: AST increased (SAP n = 43, ≥ Grade 3): 0 (0.0) n (%)
- Adverse events: Any events (SAP n = 43, ≥ Grade 3): 34 (79.1) n (%)
- Adverse events: Blood AP increased (SAP n = 43, ≥ Grade 3): 0 (0.0) n (%)
- Adverse events: Decreased appetite (SAP n = 43, ≥ Grade 3): 1 (2.3) n (%)
- Adverse events: Diarrhea (SAP n = 43, ≥ Grade 3): 0 (0.0) n (%)
- Adverse events: Dry skin (SAP n = 43, ≥ Grade 3): 0 (0.0) n (%)
- Adverse events: GGT increased (SAP n = 43, ≥ Grade 3): 6 (14.0) n (%)
- Adverse events: GI disorders (SAP n = 43, ≥ Grade 3): 2 (4.7) n (%)
- Adverse events: General disorders and administration site conditions (SAP n = 43, ≥ Grade 3): 0 (0.0) n (%)
- Adverse events: Hyperglycemia (SAP n = 43, ≥ Grade 3): 7 (16.3) n (%)
- Adverse events: Investigations (SAP n = 43, ≥ Grade 3): 18 (41.9) n (%)
- Adverse events: Metabolism and nutrition disorders (SAP n = 43, ≥ Grade 3): 9 (20.9) n (%)
- Adverse events: Nausea (SAP n = 43, ≥ Grade 3): 0 (0.0) n (%)
- Adverse events: Neutrophil count decreased (SAP n = 43, ≥ Grade 3): 9 (20.9) n (%)
- Adverse events: Pruritus (SAP n = 43, ≥ Grade 3): 0 (0.0) n (%)
- Adverse events: Pyrexia (SAP n = 43, ≥ Grade 3): 0 (0.0) n (%)
- Adverse events: Rash maculo-papular (SAP n = 43, ≥ Grade 3): 20 (46.5) n (%)
- Adverse events: Skin and SC tissue disorders (SAP n = 43, ≥ Grade 3): 21 (48.8) n (%)
- Adverse events: Stomatitis (SAP n = 43, ≥ Grade 3): 1 (2.3) n (%)
- Adverse events: Vomiting (SAP n = 43, ≥ Grade 3): 0 (0.0) n (%)
- Adverse events: WBC count decreased (SAP n = 43, ≥ Grade 3): 5 (11.6) n (%)
- Death (grade 5 respiratory failure, judged unrelated to TAS-117) (SAP, cohort 1): One patient
- Adverse drug reactions: ALT increased (Total N = 65, All grade): 7 (10.8) n (%)
- Adverse drug reactions: AST increased (Total N = 65, All grade): 8 (12.3) n (%)
- Adverse drug reactions: Any events (Total N = 65, All grade): 64 (98.5) n (%)
